Experiments:
BMI1 = test: Western blot of BMI1 expression in T24 cells; format: cell-based, human; details: T24 cells, 5, 10 and 15 μM, 24 h
Method: (§1) 10^6 cells were seeded into regular plates and treated as for the cell viability assay. Cells were harvested at intervals in a chilled lysis buffer containing 0.5 mM sodium-metavanadate, 1 mM ethylenediaminetetraacetic acid (EDTA) and protease inhibitor cocktail in phosphate-buffered saline (PBS). Probes were boiled and subjected to 10% sodium dodecyl sulphate polyacrylamide gel electrophoresis then transferred to nitrocellulose membranes. The membranes were blocked in 5% low fat milk for 1.5 h at room temperature then exposed to primary antibodies at 4° C. overnight in blocking solution. Appropriate horseradish peroxidase-conjugated secondary antibodies were used at a 1:5000 dilution (anti-mouse and anti-rabbit IgGs; Sigma-Aldrich, Steinheim, Germany) and visualized by enhanced chemiluminescence (Amersham Biosciences, Piscataway, N.J., USA). All experiments were repeated 3 times.
T24 cells were exposed to 5, 10 and 15 μM of DEA for 24 h intervals. Equal amounts of lysate protein were subjected to gel electrophoresis. GAPDH was used as loading control. Results are presented as representative immunoblots (top panel) and densitometric analysis of Western blots in bar diagrams (bottom graph). Data are expressed as the mean±1 SD, n=3 and presented as fold difference from control (medium). Significant difference from control: *p<0.05.

[1] = cited from earlier work
[2] = test system: B16F10 (mice melanoma) cells; test: MTT cell viability assay, B16F10; format: cell-based; details: 24 h and 48 h; 2.5, 5, 7.5 or 10 μM; vs untreated control
Method: The cells were seeded into 96-well plates at a starting density of 10^4 cells per well and cultured overnight before DEA was added to the medium for 24 h and 48 h. […] The amount of blue formazan dye formed from MTT+ was proportional to the number of live cells, and was determined with an Anthos Labtech 2010 ELISA reader at 550 nm. All experiments were run in at least 4 replicates and repeated 3 times. The effect of desethylamiodarone was measured in T24 (human urinary bladder carcinoma), A549 (human lung adenocarcinoma epithelial), B16F10 (mice melanoma), HeLa (human cervix adenocarcinoma), 4T1 (mouse mammary carcinoma) cell lines. Cells were treated with increasing concentrations of desethylamiodarone for 24 and 48 h. Cell growth was assessed by measuring metabolic activity, which reflects viability in the MTT-test in the course of 24 h, 48 h of continued exposure to desethylamiorarone. The untreated cells served as negative controls. The viability of the cells, was lower in all DEA-treated than in the control group, with the difference being statistically significant. […] B16F10 cells were incubated with the indicated concentrations (2.5, 5, 7.5 or 10 μM) of desethylamiodarone for 24 h (A) and 48 h (B) and cell viability was measured by MTT assay (filled bars). Untreated cells served as controls. […]

[3] = test system: T24 human bladder cancer cell line; test: Radiotherapy plus DEA, colony formation, T24; format: cell-based; details: 1Gy or 2Gy single dose alone or with 500 nM-3 μM DEA
Method: Cells were trypsinized and plated in triplicate into 6-well plates at 500 cells/well. Cells were treated with different concentration of DEA and irradiated with a dose of 1.0 and 2.0 Grays. A telecobalt (Therathron 780 C) external irradiation equipment (average photon energy of 1.25 MeV) will be applied for irradiating cells. After 7 days of incubation, cells were washed and stained with Coomassie-blue, and the colonies containing more than 50 cells were counted. The number of colonies were determined and normalized to the number of colonies in controls.
To examine the effects of a DEA on the effectiveness of radiotherapy the cells were treated with 1Gy or 2Gy single dose irradiation alone or combined with 500 nM-3 μM DEA.
The cells were treated with 1Gy or 2Gy single dose irradiation alone or combined with 500 nM-3 μM DEA. Untreated cells served as controls. The results are mean±SEM of 3 independent experiments performed in at least quadruplicate. P<0.05 compared to the corresponding control group.

[4] = test system: A549 human lung adenocarcinoma epithelial cell line; test: Colony formation assay, A549; format: cell-based; details: one week; 1, 1.5, 2, 2.5 or 3 μM
Method: Cells were trypsinized and plated in triplicate into 6-well plates at 500 cells/well. Cells were treated with different concentration of Dea. After 7 days of incubation, cells were washed and stained with Coomassie-blue, and the colonies containing more than 50 cells were counted. The number of colonies were determined and normalized to the number of colonies in controls. To assess the recovery ability of cells that survived treatment, long-term (7 days) colony formation assay was performed. […] A549 cells were incubated with the indicated concentrations of desethylamiodarone (1, 1.5, 2, 2.5 or 3 μM for one week and cell colonies were fixed, stained and counted. (A-B) Data are expressed as the mean±SD of ≧3 experiments; a p<0.01 is considered statistically significant.

GSK-3β = test: Western blot of GSK-3β phosphorylation; format: cell-based, human; details: 5-10-15 μM, 6 hours; T24, B16F10 cell lines
Method: as §1
(§2) To determine the downstream consequences of DEA treatment, we examined the phosphorylation status of AKT (protein kinase B), GSK-3β and p42/44 mitogen-activated protein kinase (MAPK) (ERK1/2) by immunoblotting in T24 (human urinary bladder carcinoma), B16F10 (mice melanoma) cell lines. Cells were cultured in the presence of 5-10-15 μM DEA for 6 hours. The cells were prepared and western blot analysis was carried out to perform both phosphorylated and non-phosphorylated forms of the previously listed proteins. […]

[5] = cited from earlier work; remark: listed apart in the source
[6] = test system: DU-145 prostate cancer cell line; test: Cisplatin sensitivity of DU-145 cells with DEA (MTT); format: cell-based; details: increasing cisplatin, 48 hours, presence or absence of 10 μM DEA
Method: The cells were seeded into 96-well plates at a starting density of 10^4 cells per well and cultured overnight before DEA was added to the medium for 24 h and 48 h. The medium was changed to a fresh one containing 0.5% of 3-[4,5-dimethylthiazol-2-yl]-2,5-diphenyl-tetrazolium bromide (MTT+) for an additional 3 hours, then the MTT+ reaction was terminated by adding HCl to 10 mM final concentration. The amount of blue formazan dye formed from MTT+ was proportional to the number of live cells, and was determined with an Anthos Labtech 2010 ELISA reader at 550 nm. All experiments were run in at least 4 replicates and repeated 3 times.
DU-145 cells were exposed to increasing concentrations of cisplatin 48 hours in presence or absence of 10 μM DEA. Viability of the cells was detected by the MTT method. Untreated cells served as controls.

AKT (protein kinase B) = test: Western blot of Akt phosphorylation; format: cell-based, human; details: 5-10-15 μM, 6 hours; T24, B16F10 cell lines
Method: as §1, §2

In the case of `CCCCc1oc2ccccc2c1C(=O)c1cc(I)c(OCCNCC)c(I)c1` [DEA, (2-butyl-3-benzofuranyl)[4-[2-(ethylamino)ethoxy]-3,5-diiodophenyl]-methanone], the BMI1 expression (BMI1) is given as “significantly suppresses BMI1 expression”, the “Concentration in patient plasma” value ([1]; after amiodarone in therapeutic doses) is given as 1700 to 4500 nM and the Mean elimination half-life ([1]; in vivo) is given as 40 days. For the same compound, the “Viability of B16F10 cells (MTT)” value [2] was “Significantly different from control group at p<0.01”, the “Radiosensitization, colony formation, T24” value [3] was “sensitize bladder cancer to irradiation” and the “Colony formation, A549” value [4] was “significant decrease in the number and the size of colonies”. For the same compound, the GSK-3β phosphorylation (GSK-3β) was “decreased the phosphorylation of GSK-3β”, the Plasma protein binding [5] was “strongly bound to plasma proteins” and the “Cisplatin sensitivity of DU-145 cells (MTT)” value [6] was “sensitizes DU-145 prostate cancer cells for cisplatin”. For the same compound, the “Akt (Ser473) phosphorylation” value (AKT (protein kinase B)) was “repressed Akt (Ser473) phosphorylation in a concentration-dependent manner”.
